code X = not defined here; Su = not defined here
Key:
human IgG [1] = type: binding; conditions: Table 18; average ligand density 1.9 μmole/ml
Procedure: (§1) In addition, the following targets, all unfractionated IgGs, were also evaluated with selected immobilized peptides for species specificity characterization in a similar format: human IgG, goat IgG, bovine IgG, and mouse IgG (Sigma, product nos. I4506, I5256, I5506, and I15381, respectively). In addition, 10 μl aliquots of hydrolyzed NHS-activated Sepharose 4 Fast Flow (Amersham Pharmacia Biotech, product no. 17-0906-01) and immobilized recombinant Protein A (RepliGen Corp., product no. IPA-400) were also assayed as negative and positive controls. IgG targets were diluted into 10 mM phosphate buffer containing 150 mM NaCl and 0.01% Tween 20, pH 7.2 (PBST) or 50 mM Tris buffer containing, 150 mM NaCl and 0.01% Tween-20, pH 7.5 (TBST). Batch (static) binding and elution studies were conducted in a 96-well assay filterplate (Millipore MultiScreen-HV, with 0.45 μm Durapore membrane, product no. MAHVN4510). The target was allowed to incubate with the resin for 1-1.5 hours with shaking at room temperature. Unbound target was collected by centrifugation of samples from the assay plate directly into a low-UV absorbing 96-well collection plate (Costar, product no. 3635 or Greiner, product no. 655801). The unbound target was then quantitated by reading the absorbance at 280 nm (normalized to 1 cm pathlength, 1.4 mg/ml A280 extinction coefficient) of the collection plate on a microplate spectrophotometer (Molecular Devices Corp., SPECTRAmax PLUS) against a buffer blank.
(§2) The percentage bound target was determined by subtracting the mass determined as unbound from the corresponding condition's control values (control non-filtered added directly to the collection plate and/or the negative control). The assay plate was washed (3×) with 200 μl of binding buffer by vacuum filtration followed by addition of 100 μl of various elution conditions (e.g.: 0.1 M sodium bicarbonate buffer, pH 8.5 and/or 0.1 M sodium citrate buffer, pH 4.0). After a 30-60 minute incubation with shaking at room temperature, the eluted target was collected by centrifugation of the assay plate into another collection plate and quantitated in a similar manner. Percent elution of total load was then determined to characterize elution recovery efficiency under various conditions. The assay plate was then washed (3×) with 200 μl of binding buffer by vacuum filtration followed by addition of a resin cleaning condition (e.g., 0.1M CAPS buffer (3-[Cyclohexylamino]-1-propane-sulfonic acid), pH 11.5, to regenerate the resin for re-use. Percentage mass balance determination was calculated to be 90-100% on average.

human IgG [2] = test: Static (filterplate) binding capacity; conditions: 25 mg human IgG applied per ml resin
Procedure: These media were used to determine the effect of ligand density on human IgG binding capacity in both static (filterplate) and dynamic (mini-column) modes with commercial immobilized recombinant Protein A (Repligen, IPA400) at a single density as control. Actual ligand densities obtained ranged from 0.17 to 3.2 μmole/ml media as confirmed by quantitative amino acid analysis.
After incubation of the samples, with shaking, at room temperature for one hour, the supernatant liquid from each well, containing unbound IgG, was collected by centrifugation into the cognate well of a collection plate. The assay plate was washed three times with PBST (200 μl/wash) and bound IgG was eluted from the media samples by incubation for 30-60 minutes at room temperature in 100 μl Elution Buffer (100 mM CAPS, pH 11.5). Eluates were collected by centrifugation for analysis. Protein concentrations were determined from A280 measurements and plotted as a function of mg human IgG bound per ml resin vs. mg human IgG applied per ml resin.
The amount of IgG captured (estimated from IgG recovered in the elution step) by the various media is dependent upon both the IgG concentration and the ligand density. […] Under these static conditions, where both ligand and target concentrations are close to KD values, equilibrium binding is established and total capacities cannot be accurately determined. However, over the IgG range of 0 to 25 mg IgG applied per ml resin (0 to 2.5 mg/ml target added to 10 μl of resin), capture of IgG is linear. Beyond this point, up to a level of 200 mg IgG applied per ml resin, saturation becomes more pronounced.

human IgG1 = target: T1, human IgG1 (Homo sapiens, UniProt P01857); type: binding; conditions: Table 18; average ligand density 1.9 μmole/ml
T1 construct: all human subtypes derived from myeloma patients; purchased Calbiochem 400120; host or cells: myeloma patients
Procedure: as §1, §2

human IgG2 = target: T2, human IgG2 (Homo sapiens, UniProt P01859); type: binding; conditions: Table 18; average ligand density 1.9 μmole/ml
T2 construct: all human subtypes derived from myeloma patients; purchased Calbiochem 400122; host or cells: myeloma patients
Procedure: as §1, §2

IgG4 = IgG4 (Homo sapiens, UniProt P01861); type: binding; design: all human subtypes derived from myeloma patients; purchased Calbiochem 400126; host or cells: myeloma patients; conditions: Table 18; average ligand density 1.9 μmole/ml
Procedure: as §1, §2

T2 sequence (P01859 1-326 isoform P01859-1): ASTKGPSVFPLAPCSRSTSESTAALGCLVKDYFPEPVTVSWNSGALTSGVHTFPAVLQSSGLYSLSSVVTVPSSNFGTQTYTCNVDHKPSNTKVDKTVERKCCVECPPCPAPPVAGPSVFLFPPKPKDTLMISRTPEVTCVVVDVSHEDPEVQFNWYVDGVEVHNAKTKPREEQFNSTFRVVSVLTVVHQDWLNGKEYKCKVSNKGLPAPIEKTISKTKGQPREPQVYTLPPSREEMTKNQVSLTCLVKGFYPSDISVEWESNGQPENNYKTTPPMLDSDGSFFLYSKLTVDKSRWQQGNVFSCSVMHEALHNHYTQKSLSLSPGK
Sequence of IgG4 (P01861 1-327 isoform P01861-1): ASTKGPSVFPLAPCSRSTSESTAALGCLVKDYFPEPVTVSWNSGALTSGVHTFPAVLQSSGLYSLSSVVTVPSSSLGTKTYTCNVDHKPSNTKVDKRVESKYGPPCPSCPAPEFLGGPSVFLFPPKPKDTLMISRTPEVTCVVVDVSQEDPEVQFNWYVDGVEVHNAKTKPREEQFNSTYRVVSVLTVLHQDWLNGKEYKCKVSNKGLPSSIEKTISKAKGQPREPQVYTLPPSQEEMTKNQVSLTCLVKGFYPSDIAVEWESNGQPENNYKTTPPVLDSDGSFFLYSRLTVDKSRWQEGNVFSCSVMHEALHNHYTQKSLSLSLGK
T1 sequence (P01857 1-330 isoform P01857-1): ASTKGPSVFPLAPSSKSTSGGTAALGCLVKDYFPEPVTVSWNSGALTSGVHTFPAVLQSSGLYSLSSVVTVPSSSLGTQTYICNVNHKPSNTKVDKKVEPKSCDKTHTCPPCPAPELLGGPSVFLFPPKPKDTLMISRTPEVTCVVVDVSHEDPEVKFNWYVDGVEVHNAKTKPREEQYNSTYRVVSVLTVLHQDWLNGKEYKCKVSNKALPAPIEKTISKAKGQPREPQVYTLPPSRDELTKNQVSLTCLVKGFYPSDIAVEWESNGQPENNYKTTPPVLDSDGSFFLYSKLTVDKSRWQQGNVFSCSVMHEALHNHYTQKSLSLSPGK

Row | Batch Binding (% Capture of Total Load) hIgG (human IgG [1]) [%] | Static Cap. (human IgG [2]; Table 18, average ligand density 1.9 μmole/ml) [mg/mL] | Batch Binding (% Capture of Total Load) hIgG1 (human IgG1) [%] | Batch Binding (% Capture of Total Load) hIgG2 (human IgG2) [%] | Decrease in apparent relative static capacity compared to DX249, DX877 and DX878 (human IgG [2]) [fold] | Batch Binding (% Capture of Total Load) hIgG4 (IgG4) [%] | Substance
1 | 63 | 23 |  |  |  |  | Ac-GDDHMCVYTTWGELIWCDNHEPG-X-Su-X-NH2 (Ac-GDDHMCVYTTWGELIWCDNHEPG-{code X-Su-code X-NH2}; not fully specified (bridges); printed as Ac-GDDHMCVYTTWGELIWCDNHEPG-X-Su-X-NH2; cysteine pairing not given here; reading uncertain) [DX878]
2 | 49 |  | 66 | 54 | ~2 | 33 | Ac-GDDHMCVYTTWGELIWCDNH-X-Su-X-NH2 (Ac-GDDHMCVYTTWGELIWCDNH-{code X-Su-code X-NH2}; not fully specified (bridges); printed as Ac-GDDHMCVYTTWGELIWCDNH-X-Su-X-NH2; cysteine pairing not given here; reading uncertain) [DX909]
